Laboratory results: patent US6358885B1, “Substituted phenylheterocyclic herbicides” (Mississippi State University, priority 1992, dated 2002)

How the values were obtained:
[1] = system: rice; experiment: Test B preemergence/postemergence greenhouse plant response rating 0 to 10; format: in vivo, Oryza sativa; details: 0 to 10 scale
Method in brief: (§1)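 Test chemicals were sprayed onto freshly planted seed and, concurrently, onto young plants between the one and four leaf stage. After a twelve- to sixteen-day greenhouse period, each species was visually compared with untreated controls.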

[2] = system: barnyardgrass; experiment: Test C flood test plant response rating 0 to 100; format: in vivo, Echinochloa crus-galli; details: for Plant response rating (0 to 100), Barnyardgrass: under POSTEMERGENCE head (flood test species); for Plant response rating, Barnyardgrass: flood test species listed under POSTEMERGENCE, 0 to 100 scale
Excerpt: (§2) The compounds evaluated in this test were formulated in a non-phytoxic solvent and applied to the soil surface before plant seedlings emerged (preemergence application), to water that covered the soil surface (flood application), and to plants that were in the one-to-four leaf stage (postemergence application). A sandy loam soil was used for the preemergence and postemergence tests, while a silt loam soil was used in the flood test. Water depth was approximately 2.5 cm for the flood test and was maintained at this level for the duration of the test. Plant species in the preemergence and postemergence tests consisted of barley (Hordeum vulgare), bedstraw (Galium aparine), blackgrass (Alopecurus myosuroides), chickweed (Stellaria media), corn (Zea mays), cotton (Gossypium hirsutum), crabgrass (Digitaria sanguinalis), downy brome (Bromus tectorum), giant foxtail (Setaria faberii), lambsquarters (Chenopodium album), morningglory (Ipomoea hederacea), pigweed ([…]), rape (Brassica napus), ryegrass (Lolium multiflorum), sorghum (Sorghum bicolor), soybean (Glycine max), speedwell (Veronica persica), sugar beet (Beta vulgaris), velvetleaf (Abutilon theophrasti), wheat (Triticum aestivum), wild buckwheat (Polygonum convolvulus), and wild oat (Avena fatua). All plant species were planted one day before application of the compound for the preemergence portion-of this test. Plantings of these species were adjusted to produce plants of appropriate size for the post-emergence portion of the test. […] All plant species were grown using normal greenhouse practices. Visual evaluations of injury expressed on treated plants, when compared to untreated controls, were recorded approximately fourteen to twenty one days after application of the test compound. […] A dash (-) response means no test result.

[3] = system: lambsquarters; experiment: Test C preemergence/postemergence greenhouse plant response rating 0 to 100; format: in vivo, Chenopodium album; details: POSTEMERGENCE; for Plant response rating Lambsquarters: 0 to 100 scale
Method in brief: (§3)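 Compounds in non-phytotoxic solvent applied preemergence to sandy loam one day after planting, postemergence at the 1–4 leaf stage, or to ~2.5 cm floodwater over silt loam.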

[4] = system: cheatgrass; experiment: Test B preemergence/postemergence greenhouse plant response rating 0 to 10; format: in vivo, Bromus secalinus; details: for Plant response rating, Cheatgrass: 0 to 10 scale
Method in brief: as §1

[5] = system: giant foxtail; experiment: Test C preemergence/postemergence greenhouse plant response rating 0 to 100; format: in vivo, Setaria faberii; details: POSTEMERGENCE; for Plant response rating, Giant foxtail: 0 to 100 scale
Method in brief: as §3

[6] = system: wheat; experiment: Test B preemergence/postemergence greenhouse plant response rating 0 to 10; format: in vivo, Triticum aestivum; details: 0 to 10 scale
Method in brief: as §1

[7] = system: sugar beet; experiment: Test C preemergence/postemergence greenhouse plant response rating 0 to 100; format: in vivo, Beta vulgaris; details: POSTEMERGENCE; for Plant response rating, Sugar beet: 0 to 100 scale
Method in brief: as §3

[8] = system: duck salad; experiment: Test C flood test plant response rating 0 to 100; format: in vivo, Heteranthera limosa; details: for Plant response rating Duck salad: flood test species listed under POSTEMERGENCE, 0 to 100 scale
Excerpt: as §2

[9] = system: crabgrass; experiment: Test C preemergence/postemergence greenhouse plant response rating 0 to 100; format: in vivo, Digitaria sanguinalis; details: POSTEMERGENCE; for Plant response rating, Crabgrass: 0 to 100 scale
Method in brief: as §3

[10] = system: cotton; experiment: Test B preemergence/postemergence greenhouse plant response rating 0 to 10; format: in vivo, Gossypium hirsutum; details: for Plant response rating, Cotton: 0 to 10 scale
Method in brief: as §1

[11] = system: velvetleaf; experiment: Test C preemergence/postemergence greenhouse plant response rating 0 to 100; format: in vivo, Abutilon theophrasti; details: POSTEMERGENCE; for Plant response rating, Velvetleaf: 0 to 100 scale
Method in brief: as §3

[12] = system: corn; experiment: Test B preemergence/postemergence greenhouse plant response rating 0 to 10; format: in vivo, Zea mays; details: for Plant response rating, Corn: 0 to 10 scale
Method in brief: as §1

[13] = system: cotton; experiment: Test C preemergence/postemergence greenhouse plant response rating 0 to 100; format: in vivo, Gossypium hirsutum; details: POSTEMERGENCE; for Plant response rating, Cotton: 0 to 100 scale
Method in brief: as §3

[14] = system: downy brome; experiment: as above; format: in vivo, Bromus tectorum; details: POSTEMERGENCE; for Plant response rating Downy Brome: 0 to 100 scale
Method in brief: as §3

[15] = system: wild oat; experiment: Test B preemergence/postemergence greenhouse plant response rating 0 to 10; format: in vivo, Avena fatua; details: POSTEMERGENCE, 0 to 10 scale
Method in brief: as §1

[16] = system: lambsquarters; experiment: as above; format: in vivo, Chenopodium album; details: 0 to 10 scale
Method in brief: as §1

[17] = system: bedstraw; experiment: Test C preemergence/postemergence greenhouse plant response rating 0 to 100; format: in vivo, Galium aparine; details: POSTEMERGENCE; for Plant response rating, Bedstraw: 0 to 100 scale
Method in brief: as §3

[18] = system: sorghum; experiment: as above; format: in vivo, Sorghum bicolor; details: POSTEMERGENCE; for Plant response rating, Sorghum: 0 to 100 scale
Method in brief: as §3

CC(C)COc1cc(-c2nn3c(c2Cl)CCCC3)c(F)cc1Cl [Compound 30]
10: Plant response rating (0 to 10 scale), Cotton ([10]; POSTEMERGENCE, Rate 50 g/ha) | Plant response rating, Cotton ([10]; POSTEMERGENCE, Rate 200 g/ha) | Plant response rating, Lambsquarter ([16]; POSTEMERGENCE, Rate 50 g/ha) | Plant response rating, Lambsquarter ([16]; Rate 200 g/ha, POSTEMERGENCE) | Plant response rating, Lambsquarter ([16]; Rate 200 g/ha, PREEMERGENCE)
95: Plant response rating (0 to 100), Barnyardgrass ([2]; Rate 16 g/ha)
90: Plant response rating Lambsquarters ([3]; 62 g/ha) | Plant response rating Downy Brome ([14]; 250 g/ha)
0: Plant response rating, Rice ([1]; PREEMERGENCE, Rate 50 g/ha) | Plant response rating, Cheatgrass ([4]; PREEMERGENCE, Rate 50 g/ha) | Plant response rating (0 to 100), Giant foxtail ([5]; Rate 4 g/ha) | Plant response rating, Wheat ([6]; PREEMERGENCE, Rate 50 g/ha) | Plant response rating (0 to 100), Duck salad ([8]; POSTEMERGENCE section, flood test, Rate 4 g/ha) | Plant response rating, Crabgrass ([9]; 62 g/ha) | Plant response rating (0 to 100), Crabgrass ([9]; Rate 4 g/ha) | Plant response rating (0 to 100), Crabgrass ([9]; Rate 16 g/ha) | Plant response rating (0 to 100), Velvetleaf ([11]; Rate 4 g/ha) | Plant response rating, Corn ([12]; PREEMERGENCE, Rate 50 g/ha) | Plant response rating (0 to 100), Sorghum ([18]; Rate 4 g/ha) | Plant response rating (0 to 100), Sorghum ([18]; Rate 16 g/ha)
70: Plant response rating (0 to 100), Lambsquarters ([3]; Rate 16 g/ha) | Plant response rating (0 to 100), Bedstraw ([17]; Rate 16 g/ha)
50: Plant response rating (0 to 100), Lambsquarters ([3]; Rate 4 g/ha) | Plant response rating, Giant foxtail ([5]; 62 g/ha) | Plant response rating (0 to 100), Bedstraw ([17]; Rate 4 g/ha)
60: Plant response rating Duck salad ([8]; 250 g/ha) | Plant response rating (0 to 100), Velvetleaf ([11]; Rate 16 g/ha) | Plant response rating Downy Brome ([14]; 62 g/ha)
4: Plant response rating, Cheatgrass ([4]; Rate 200 g/ha, PREEMERGENCE) | Plant response rating, Wheat ([6]; POSTEMERGENCE, Rate 50 g/ha) | Plant response rating (0 to 10 scale), Corn ([12]; POSTEMERGENCE, Rate 50 g/ha) | Plant response rating, Corn ([12]; POSTEMERGENCE, Rate 200 g/ha)
6: Plant response rating (0 to 10 scale), Cheatgrass ([4]; POSTEMERGENCE, Rate 50 g/ha) | Plant response rating, Cotton ([10]; Rate 200 g/ha, PREEMERGENCE) | Plant response rating, Wild oat ([15]; Rate 200 g/ha)
40: Plant response rating Duck salad ([8]; 62 g/ha) | Plant response rating (0 to 100), Downy Brome ([14]; Rate 16 g/ha) | Plant response rating, Sorghum ([18]; 250 g/ha)
7: Plant response rating, Cheatgrass ([4]; POSTEMERGENCE, Rate 200 g/ha)
1: Plant response rating, Corn ([12]; Rate 200 g/ha, PREEMERGENCE)
100: Plant response rating, Barnyardgrass ([2]; 62 g/ha) | Plant response rating, Barnyardgrass ([2]; 250 g/ha) | Plant response rating Lambsquarters ([3]; 250 g/ha) | Plant response rating, Sugar beet ([7]; 62 g/ha) | Plant response rating, Sugar beet ([7]; 250 g/ha) | Plant response rating (0 to 100), Sugar beet ([7]; Rate 16 g/ha) | Plant response rating, Velvetleaf ([11]; 62 g/ha) | Plant response rating, Velvetleaf ([11]; 250 g/ha) | Plant response rating, Cotton ([13]; 62 g/ha) | Plant response rating, Cotton ([13]; 250 g/ha) | Plant response rating (0 to 100), Cotton ([13]; Rate 4 g/ha) | Plant response rating (0 to 100), Cotton ([13]; Rate 16 g/ha) | Plant response rating, Bedstraw ([17]; 62 g/ha) | Plant response rating, Bedstraw ([17]; 250 g/ha)
85: Plant response rating (0 to 100), Barnyardgrass ([2]; Rate 4 g/ha)
20: Plant response rating (0 to 100), Giant foxtail ([5]; Rate 16 g/ha) | Plant response rating, Crabgrass ([9]; 250 g/ha) | Plant response rating (0 to 100), Downy Brome ([14]; Rate 4 g/ha) | Plant response rating, Sorghum ([18]; 62 g/ha)
30: Plant response rating (0 to 100), Duck salad ([8]; Rate 16 g/ha, under POSTEMERGENCE head (flood test species))
80: Plant response rating, Giant foxtail ([5]; 250 g/ha) | Plant response rating (0 to 100), Sugar beet ([7]; Rate 4 g/ha)
5: Plant response rating, Rice ([1]; POSTEMERGENCE, Rate 50 g/ha) | Plant response rating, Rice ([1]; Rate 200 g/ha, POSTEMERGENCE) | Plant response rating, Wheat ([6]; Rate 200 g/ha, POSTEMERGENCE) | Plant response rating, Wild oat ([15]; Rate 50 g/ha)
2: Plant response rating, Rice ([1]; Rate 200 g/ha, PREEMERGENCE) | Plant response rating, Wheat ([6]; Rate 200 g/ha, PREEMERGENCE) | Plant response rating, Cotton ([10]; PREEMERGENCE, Rate 50 g/ha)
8: Plant response rating, Lambsquarter ([16]; PREEMERGENCE, Rate 50 g/ha)
